In ChEMBL document CHEMBL5543097, “Synthesis and structure-activity relationships of novel 14-membered 2-fluoro ketolides with structural modification at the C11 position” (Eur J Med Chem, 2024):
Values after ≈ are worked out from the molar mass of the structure shown. Active and inactive are the calls of the source. The rule behind the calls is not given here.

Experiments:
Haemophilus influenzae [1] = test: Antibacterial activity against Haemophilus influenzae HIN 19-18 assessed as inhibition of bacterial growth incubated for 20 to 24 hrs by CLSI based broth microdilution method; type: functional; settings: HIN 19-18, time 20-24 hrs
Streptococcus agalactiae [2] = test: Antibacterial activity against erythromycin-resistant Streptococcus agalactiae 19-8 assessed as inhibition of visible bacterial growth incubated for 18 hrs by broth microdilution method; type: functional
Enterococcus faecium = test: Antibacterial activity against vancomycin-resistant Enterococcus faecium assessed as inhibition of visible bacterial growth; type: functional
Streptococcus pyogenes = test: Antibacterial activity against erythromycin-resistant Streptococcus pyogenes ATCC 19615 assessed as inhibition of visible bacterial growth incubated for 18 hrs by broth microdilution method; type: functional
Moraxella catarrhalis [3] = test: Antibacterial activity against Moraxella catarrhalis BCA 19-6 assessed as inhibition of bacterial growth incubated for 24 hrs by CLSI based broth microdilution method; type: functional; settings: Moraxella catarrhalis, BCA 19-6, 24 h, read-out: MIC
[4] = test system: Staphylococcus epidermidis; test: Antibacterial activity against erythromycin-resistant Staphylococcus epidermidis 19-11 assessed as inhibition of visible bacterial growth incubated for 18 hrs by broth microdilution method; type: functional
Moraxella catarrhalis [5] = test: Antibacterial activity against Moraxella catarrhalis BCA 19-5 assessed as inhibition of bacterial growth incubated for 24 hrs by CLSI based broth microdilution method; type: functional; settings: Moraxella catarrhalis, BCA 19-5, 24 h, read-out: MIC
Streptococcus pneumoniae [6] = test: Antibacterial activity against erythromycin-resistant Streptococcus pneumoniae SPN19-13 assessed as inhibition of visible bacterial growth incubated for 18 hrs by broth microdilution method; type: functional
[7] = test system: Staphylococcus epidermidis; test: Antibacterial activity against erythromycin-resistant Staphylococcus epidermidis 19-6 assessed as inhibition of visible bacterial growth incubated for 18 hrs by broth microdilution method; type: functional
[8] = test system: Staphylococcus epidermidis; test: Antibacterial activity against erythromycin-resistant Staphylococcus epidermidis 19-4 assessed as inhibition of visible bacterial growth incubated for 18 hrs by broth microdilution method; type: functional
[9] = test system: Staphylococcus epidermidis; test: Antibacterial activity against erythromycin-resistant Staphylococcus epidermidis 19-8 assessed as inhibition of visible bacterial growth incubated for 18 hrs by broth microdilution method; type: functional
Enterococcus faecalis = test: Antibacterial activity against Enterococcus faecalis ATCC 51575 assessed as inhibition of visible bacterial growth; type: functional, organism-based
Moraxella catarrhalis [10] = test: Antibacterial activity against Moraxella catarrhalis BCA 19-31 assessed as inhibition of bacterial growth incubated for 24 hrs by CLSI based broth microdilution method; type: functional; settings: BCA 19-31, 24 h
Streptococcus agalactiae [11] = test: Antibacterial activity against erythromycin-resistant Streptococcus agalactiae 19-9 assessed as inhibition of visible bacterial growth incubated for 18 hrs by broth microdilution method; type: functional
Streptococcus pneumoniae [12] = test: Antibacterial activity against erythromycin-resistant Streptococcus pneumoniae SPN19-8 assessed as inhibition of visible bacterial growth incubated for 18 hrs by broth microdilution method; type: functional
[13] = Cytotoxicity against mouse AML12 cells assessed as reduction in cell viability incubated for 48 hrs by MTT assay; type: toxicity, cell-based
[14] = test system: Staphylococcus epidermidis; test: Antibacterial activity against erythromycin-resistant Staphylococcus epidermidis 19-9 assessed as inhibition of visible bacterial growth incubated for 18 hrs by broth microdilution method; type: functional
Streptococcus pneumoniae [15] = test: Antibacterial activity against erythromycin-resistant Streptococcus pneumoniae SPN19-14 assessed as inhibition of visible bacterial growth incubated for 18 hrs by broth microdilution method; type: functional
[16] = test system: Staphylococcus epidermidis; test: Antibacterial activity against erythromycin-resistant Staphylococcus epidermidis 19-5 assessed as inhibition of visible bacterial growth incubated for 18 hrs by broth microdilution method; type: functional
[17] = test system: Staphylococcus epidermidis; test: Potency index, ratio of telithromycin MIC to test compound MIC for antibacterial activity against erythromycin-resistant Staphylococcus epidermidis 19-11 assessed as inhibition of visible bacterial growth incubated for 18 hrs by broth microdilution method; type: functional
[18] = test system: Staphylococcus epidermidis; test: Potency index, ratio of telithromycin MIC to test compound MIC for antibacterial activity against erythromycin-resistant Staphylococcus epidermidis 19-5 assessed as inhibition of visible bacterial growth incubated for 18 hrs by broth microdilution method; type: functional
[19] = test system: Staphylococcus epidermidis; test: Potency index, ratio of telithromycin MIC to test compound MIC for antibacterial activity against erythromycin-resistant Staphylococcus epidermidis 19-8 assessed as inhibition of visible bacterial growth incubated for 18 hrs by broth microdilution method; type: functional
Streptococcus pneumoniae [20] = test: Potency index, ratio of telithromycin MIC to test compound MIC for antibacterial activity against Streptococcus pneumoniae SPN19-14 assessed as inhibition of visible bacterial growth incubated for 18 hrs by broth microdilution method; type: functional
Streptococcus pneumoniae [21] = test: Potency index, ratio of telithromycin MIC to test compound MIC for antibacterial activity against Streptococcus pneumoniae SPN19-8 assessed as inhibition of visible bacterial growth incubated for 18 hrs by broth microdilution method; type: functional
[22] = test system: Staphylococcus epidermidis; test: Potency index, ratio of telithromycin MIC to test compound MIC for antibacterial activity against erythromycin-resistant Staphylococcus epidermidis 19-6 assessed as inhibition of visible bacterial growth incubated for 18 hrs by broth microdilution method; type: functional
Escherichia coli = test: Antibacterial activity against Escherichia coli ATCC 35218 assessed as inhibition of visible bacterial growth; type: functional, organism-based
[23] = test system: Staphylococcus epidermidis; test: Potency index, ratio of telithromycin MIC to test compound MIC for antibacterial activity against erythromycin-resistant Staphylococcus epidermidis 19-9 assessed as inhibition of visible bacterial growth incubated for 18 hrs by broth microdilution method; type: functional
Streptococcus pneumoniae [24] = test: Potency index, ratio of telithromycin MIC to test compound MIC for antibacterial activity against Streptococcus pneumoniae SPN19-13 assessed as inhibition of visible bacterial growth incubated for 18 hrs by broth microdilution method; type: functional
[25] = test system: Staphylococcus epidermidis; test: Potency index, ratio of telithromycin MIC to test compound MIC for antibacterial activity against erythromycin-resistant Staphylococcus epidermidis 19-4 assessed as inhibition of visible bacterial growth incubated for 18 hrs by broth microdilution method; type: functional
Haemophilus influenzae [26] = test: Antibacterial activity against Haemophilus influenzae HIN 19-15 assessed as inhibition of bacterial growth incubated for 20 to 24 hrs by CLSI based broth microdilution method; type: functional; settings: time 20-24 hrs
Staphylococcus aureus = test: Antibacterial activity against Staphylococcus aureus ATCC 700699 assessed as inhibition of visible bacterial growth; type: functional
Haemophilus influenzae [27] = test: Antibacterial activity against Haemophilus influenzae HIN 20-18 assessed as inhibition of bacterial growth incubated for 20 to 24 hrs by CLSI based broth microdilution method; type: functional; settings: time 20-24 hrs

SMILES	MIC (Haemophilus influenzae [1]) [µg/mL]	MIC (Streptococcus agalactiae [2]) [µg/mL]	MIC (Enterococcus faecium) [µg/mL]	MIC (Streptococcus pyogenes) [µg/mL]	MIC (Moraxella catarrhalis [3]) [µg/mL]	MIC [4] [µg/mL]	MIC (Moraxella catarrhalis [5]) [µg/mL]	MIC (Streptococcus pneumoniae [6]) [µg/mL]	MIC [7] [µg/mL]	MIC [8] [µg/mL]	MIC [9] [µg/mL]	MIC (Moraxella catarrhalis [10]) [µg/mL]	MIC (Streptococcus agalactiae [11]) [µg/mL]	MIC (Streptococcus pneumoniae [12]) [µg/mL]	CC50 at 48 h [13] [µM]	MIC [14] [µg/mL]	MIC (Streptococcus pneumoniae [15]) [µg/mL]	MIC [16] [µg/mL]	MIC (Haemophilus influenzae [26]) [µg/mL]	MIC (Staphylococcus aureus) [µg/mL]	further results
CC[C@H]1OC(=O)[C@@](C)(F)C(=O)[C@H](C)[C@@H](O[C@@H]2O[C@H](C)C[C@H](N(C)C)[C@H]2O)[C@](C)(OC)C[C@@H](C)C(=O)[C@H](C)[C@H]2N(CCCOC(=O)Nc3ccc(C(C)C)cc3)C(=O)O[C@]12C	16 (≈ 18.8 µM)	< 0.03	16 (≈ 18.8 µM)	< 0.03	0.25 (≈ 0.294 µM)	0.25 (≈ 0.294 µM)	0.5 (≈ 0.588 µM)	1 (≈ 1.18 µM)	0.25 (≈ 0.294 µM)	0.125 (≈ 0.147 µM)	< 0.03	1 (≈ 1.18 µM)	4 (≈ 4.71 µM)	2 (≈ 2.35 µM)	25.5	1 (≈ 1.18 µM)	1 (≈ 1.18 µM)	< 0.03	–	–	Activity (Enterococcus faecalis): Active
CC[C@H]1OC(=O)[C@@](C)(F)C(=O)[C@H](C)[C@@H](O[C@@H]2O[C@H](C)C[C@H](N(C)C)[C@H]2O)[C@](C)(OC)C[C@@H](C)C(=O)[C@H](C)[C@H]2N(CCCOC(=O)Nc3cccc4ccccc34)C(=O)O[C@]12C	4 (≈ 4.66 µM)	< 0.03	16 (≈ 18.6 µM)	< 0.03	< 0.03	< 0.03	< 0.03	< 0.03	< 0.03	< 0.03	< 0.03	< 0.03	< 0.03	< 0.03	29.4	0.125 (≈ 0.146 µM)	< 0.03	< 0.03	4 (≈ 4.66 µM)	–	Ratio [17]: 4; Ratio [18]: 4; Ratio [19]: 4; Ratio (Streptococcus pneumoniae [20]): <4; Ratio (Streptococcus pneumoniae [21]): <4; Ratio [22]: 4; Activity (Escherichia coli): Active; Ratio [23]: 4; Ratio (Streptococcus pneumoniae [24]): <4; Ratio [25]: 4
CC[C@H]1OC(=O)[C@H](C)C(=O)[C@H](C)[C@@H](O[C@@H]2O[C@H](C)C[C@H](N(C)C)[C@H]2O)[C@](C)(OC)C[C@@H](C)C(=O)[C@H](C)[C@H]2N(CCCCn3cnc(-c4cccnc4)c3)C(=O)O[C@]12C [TELITHROMYCIN]	4 (≈ 4.93 µM)	< 0.03	–	< 0.03	0.25 (≈ 0.308 µM)	0.25 (≈ 0.308 µM)	0.25 (≈ 0.308 µM)	0.25 (≈ 0.308 µM)	64 (≈ 78.8 µM)	> 64	> 64	0.25 (≈ 0.308 µM)	0.125 (≈ 0.154 µM)	0.5 (≈ 0.616 µM)	> 100	0.5 (≈ 0.616 µM)	0.25 (≈ 0.308 µM)	0.25 (≈ 0.308 µM)	4 (≈ 4.93 µM)	16 (≈ 19.7 µM)	–
CCOc1ccccc1NC(=O)OCCCN1C(=O)O[C@]2(C)[C@@H](CC)OC(=O)[C@@](C)(F)C(=O)[C@H](C)[C@@H](O[C@@H]3O[C@H](C)C[C@H](N(C)C)[C@H]3O)[C@](C)(OC)C[C@@H](C)C(=O)[C@H](C)[C@@H]12	2 (≈ 2.35 µM)	–	–	< 0.03	0.125 (≈ 0.147 µM)	0.16 (≈ 0.188 µM)	0.125 (≈ 0.147 µM)	0.06 (≈ 0.0704 µM)	0.125 (≈ 0.147 µM)	0.06 (≈ 0.0704 µM)	0.06 (≈ 0.0704 µM)	0.03 (≈ 0.0352 µM)	0.25 (≈ 0.293 µM)	0.125 (≈ 0.147 µM)	> 100	0.5 (≈ 0.587 µM)	0.06 (≈ 0.0704 µM)	< 0.03	4 (≈ 4.69 µM)	16 (≈ 18.8 µM)	MIC (Haemophilus influenzae [27]): 8 µg/mL (≈ 9.39 µM)
CC[C@H]1OC(=O)[C@@](C)(F)C(=O)[C@H](C)[C@@H](O[C@@H]2O[C@H](C)C[C@H](N(C)C)[C@H]2O)[C@](C)(OC)C[C@@H](C)C(=O)[C@H](C)[C@H]2N(CCCOC(=O)Nc3ccc(C(F)(F)F)cc3)C(=O)O[C@]12C	–	–	16 (≈ 18.3 µM)	< 0.03	0.125 (≈ 0.143 µM)	< 0.03	0.125 (≈ 0.143 µM)	0.125 (≈ 0.143 µM)	0.125 (≈ 0.143 µM)	0.03 (≈ 0.0342 µM)	0.06 (≈ 0.0685 µM)	0.06 (≈ 0.0685 µM)	1 (≈ 1.14 µM)	0.125 (≈ 0.143 µM)	19.6	0.25 (≈ 0.285 µM)	0.125 (≈ 0.143 µM)	< 0.03	4 (≈ 4.57 µM)	16 (≈ 18.3 µM)	–
CC[C@H]1OC(=O)[C@@](C)(F)C(=O)[C@H](C)[C@@H](O[C@@H]2O[C@H](C)C[C@H](N(C)C)[C@H]2O)[C@](C)(OC)C[C@@H](C)C(=O)[C@H](C)[C@H]2N(CCCOC(=O)Nc3ccc4ccccc4c3)C(=O)O[C@]12C	2 (≈ 2.33 µM)	< 0.03	16 (≈ 18.6 µM)	< 0.03	< 0.03	< 0.03	< 0.03	< 0.03	< 0.03	< 0.03	< 0.03	< 0.03	0.5 (≈ 0.583 µM)	0.25 (≈ 0.291 µM)	18.5	0.125 (≈ 0.146 µM)	< 0.03	< 0.03	8 (≈ 9.32 µM)	16 (≈ 18.6 µM)	Ratio [17]: 4; Ratio [18]: 4; Ratio [19]: 4; Ratio (Streptococcus pneumoniae [20]): <4; Ratio (Streptococcus pneumoniae [21]): <4; Ratio [22]: 4; Ratio [23]: 4; Ratio (Streptococcus pneumoniae [24]): <4; Ratio [25]: 4
